The results in this text go back to ChEMBL document CHEMBL1142122, “Extending the record of meroditerpenes from Cacospongia marine sponges” (2007).

Common to all, as to type: functional
The subject of assay [1] is Bacillus subtilis. As to the kind of experiment: Antimicrobial activity against Bacillus subtilis.
The test system of assay [2] is Escherichia coli. The assay is described as follows: Antimicrobial activity against Escherichia coli.
Assay [3] relates to Staphylococcus epidermidis. As to the kind of experiment: Antimicrobial activity against Staphylococcus epidermidis.

Converted amounts (≈) assume the structure as drawn.

Consider `C=C(C)CCC[C@@]1(C)CCC[C@@]2(C)[C@H](Cc3cc(C(=O)O)ccc3O)C(=C)CC[C@H]12`, for which the MIC in assay [1] was over 400 µg/mL; in assay [2], over 400 µg/mL; in assay [3] it was 2.5 µg/mL (≈ 6.09 µM).

Regarding `CC1=C(CC/C(C)=C/CC/C(C)=C/Cc2cc(C(=O)O)ccc2O)C(C)(C)CCC1` [CACOSPONGIN D], the MIC in assay [1] is over 400 µg/mL; in assay [2], over 400 µg/mL; in assay [3], 20 µg/mL (≈ 48.7 µM).

Take `CC1=C(CC/C(C)=C/CC/C(C)=C/Cc2cc(O)ccc2O)C(C)(C)CCC1` [JASPAQUINOL]: the MIC in assay [1] is over 400 µg/mL; in assay [2] it was over 400 µg/mL; in assay [3] it was 5 µg/mL (≈ 13.1 µM).

For `CC(C)=CCC[C@@]1(C)CCC[C@]2(C)[C@@H](Cc3cc(C(=O)O)ccc3O)C(C)=CC[C@@H]12` [JASPIC ACID], the MIC was over 400 µg/mL in assay [1], over 400 µg/mL in assay [2] and 2.5 µg/mL (≈ 6.09 µM) in assay [3].
